In PubChem BioAssay AID1645848:
In brackets after ≈: the same amount, converted by molar mass.

settings: buffer; pH 7.4; 6.0 h; 150.0 µM

SMILES	solubility kinetic
Cc1ccc(NC(=O)c2cc(-c3ccc[nH]3)n[nH]2)cc1F	> 28 µg/mL
COc1ccc(C(=O)NC2CCN(c3cnn(CC4CC4)c(=O)c3)CC2)c(OC)n1	> 41 µg/mL
CC(=O)C1CCN(c2ncc(-c3cccc(N(C)C)c3)s2)CC1	3.33 µg/mL (≈ 10.1 µM)
Cc1ccc(NS(=O)(=O)c2cc3c(cc2N[C@H](C)CO)NC(=O)CC3)cc1C	> 60 µg/mL
Nc1nc(N)c2c(OCC3CCN(Cc4ccccc4F)CC3)cccc2n1	> 56 µg/mL
Clc1ccccc1CSc1nc2ncc(Br)cc2[nH]1	< 1 µg/mL
Nc1nc2c(s1)C(c1c(Cl)cccc1Cl)CC(=O)N2 (stereo unspecified)	< 1 µg/mL
COc1cccc(CNc2ccc(S(=O)(=O)Nc3ccc(N4CCNCC4)nc3)cc2)c1O	55.9 µg/mL (≈ 119 µM)
c1cc(OCCN2CCCCC2)cc(-c2n[nH]c3ccc(-c4ncn[nH]4)cc23)c1	> 38 µg/mL
COc1ccc(NC(=O)c2[nH]c(C)c(C(C)=O)c2C)cc1S(=O)(=O)N1CCCCCC1	3.11 µg/mL (≈ 6.94 µM)
CC(C)(O)/C=C\C(=O)[C@](C)(O)[C@H]1[C@H](O)C[C@]2(C)[C@@H]3CC=C4[C@@H](C=C(O)C(=O)C4(C)C)[C@]3(C)C(=O)C[C@@]12C	> 51 µg/mL
O=C(Nc1cccc(OC(F)(F)F)c1)c1cc(-c2ccc[nH]2)n[nH]1	10.8 µg/mL (≈ 32 µM)
Cc1ccc(N(C)S(=O)(=O)c2ccc(-c3cnc(C4CC4)o3)cc2)cc1	< 1 µg/mL
Cn1nnnc1Sc1ncnc2scc(-c3ccc(F)cc3)c12	15.3 µg/mL (≈ 44.5 µM)
NC(=O)C1CCN(c2ncc(-c3cccc(N4CCOCC4)c3)s2)CC1	> 55 µg/mL
Nc1ncnc2c1ncn2[C@H]1O[C@@H](CO)[C@@H](O)[C@H]1N	> 39 µg/mL
O=c1n(-c2ccc(Cl)cc2)nc2n1CCN(Cc1ccc(C(F)(F)F)cc1)C2	< 1 µg/mL
C#CCNC(=O)c1nc(-c2ccc([S+](C)(=O)[O-])cc2)c2cnccn12	< 1 µg/mL
O=C1CCCC2=C1C1(CCS(=O)(=O)C1)N=C(Nc1nc3ccccc3o1)N2 (stereo unspecified)	1.02 µg/mL (≈ 2.65 µM)
O=c1c(-c2cccs2)ccc2n1C[C@H]1C[C@@H]2CN(C2CCOCC2)C1	> 79 µg/mL
NC(=O)C1CCN(c2nc(-c3ccc(OC(F)(F)F)cc3)cs2)CC1	< 1 µg/mL
CC(=O)c1c(C)[nH]c(C(=O)Nc2cccc([S+](=O)([O-])Nc3c(C)cccc3C)c2)c1C	< 1 µg/mL
Cc1ccnc(C)c1C(=O)Nc1cccc([S+](=O)([O-])N(C)C)c1	> 49 µg/mL
COc1ccc(-n2nc(C)c([C@@H]3C=C[C@@H](NCc4cccc(Cl)c4)C3)c2C)cc1	46.2 µg/mL (≈ 113 µM)
CN(Cc1ccc(/C=C/C(=O)NO)cc1)CC12CC3CC(CC(C3)C1)C2	> 35 µg/mL
Cc1ccc(Cl)cc1NS(=O)(=O)c1cc2c(cc1F)NC(=O)CC2	1.76 µg/mL (≈ 4.79 µM)
CC(C)Oc1ccc(-c2csc(N3CCC(C(N)=O)CC3)n2)cc1	11.7 µg/mL (≈ 33.8 µM)

SMILES	solubility kinetic
Cc1cccc(-n2cnc3cc(C(=O)N4CCCCC4)ccc32)c1	> 47 µg/mL
Cn1c(=O)c2c(nc(Cl)n2Cc2ccc(Cl)cc2)n(C)c1=O	2.15 µg/mL (≈ 6.32 µM)
Cc1ccc(S(=O)(=O)Nc2cnccc2C(=O)Nc2nc(-c3cnn(C)c3)cs2)cc1	25.4 µg/mL (≈ 55.8 µM)
COc1cc2c(C(=O)N3CCN(c4cccc(C(F)(F)F)c4)CC3)cn(CC(C)C)c(=O)c2cc1OC	4.92 µg/mL (≈ 9.5 µM)
O=C(Nc1ccccc1O)c1ccc(NC(=O)C2CC2)cc1	1.75 µg/mL (≈ 5.92 µM)
COc1ccc(C2=Nn3c([n+](C)c4ccccc43)SC2)cc1.[Br-]	> 46 µg/mL
OCc1ccc(-c2ccc(-c3ccc(CO)s3)o2)s1	> 43 µg/mL
CC(=O)Nc1ccc(N[S+](=O)([O-])c2cccc(NC(=O)c3[nH]c(C)c(C(C)=O)c3C)c2)cc1	18.3 µg/mL (≈ 39 µM)
Cc1ccc(CNCc2cn[nH]c2-c2ccc(C)cc2)cc1	30 µg/mL (≈ 103 µM)
Cc1cccc(-c2noc([C@@H]3Cc4nc[nH]c4CN3)n2)c1	18.3 µg/mL (≈ 65 µM)
COc1ccc(NC(=O)c2c(C)c(C(C)=O)c(C)n2C)cc1S(=O)(=O)Nc1ccc(Br)cc1	< 1 µg/mL
C/C(=N\NC(N)=S)C1=CCC2C3CC[C@H]4CC(O)CC[C@]4(C)C3CC[C@]12C (stereo partly specified)	< 1 µg/mL
Cc1ccc(-n2ncc3c(NCCCn4ccnc4)ncnc32)cc1Cl	4.07 µg/mL (≈ 11.1 µM)
CCNC(=O)c1coc(COc2ccc3c(c2)C(c2ccc(F)cc2)N(C(=O)CC(C)C)CC3)n1 (stereo unspecified)	3.8 µg/mL (≈ 7.92 µM)
CCOC(=O)c1ccc(NC(=O)c2sc3nc4c(cc3c2N)N2CCC4CC2)cc1	< 1 µg/mL
COC[C@@H]1CN(C(=O)c2nn(C)c3ccccc23)C[C@H]1c1nc(C)no1	> 100 µg/mL
COc1ccc(C2c3c(oc4ccc(C)cc4c3=O)C(=O)N2CCCN2CCOCC2)cc1OC (stereo unspecified)	> 71 µg/mL
CCCS(=O)(=O)c1nc(NC2CC2)cc(-c2ccc3c(ccn3C3CC(C)(C)NC(C)(C)C3)c2)n1	< 1 µg/mL
O=C(NCC1CCOCC1)C1CC(=O)N(c2n[nH]c3cc(Br)ccc23)C1 (stereo unspecified)	25.3 µg/mL (≈ 60.1 µM)
Cc1cccc(-c2csc(N3CCC(C(N)=O)CC3)n2)c1	> 45 µg/mL
O=C(Nc1ccc(-c2ccccc2)cc1)[C@H](Cc1ccc(O[S+](=O)([O-])c2cccc3cnccc23)cc1)N[S+](=O)([O-])c1cccc2cnccc12	< 1 µg/mL
CCOC(=O)C1(Cc2ccccc2C(F)(F)F)CCN(C2CCN(C(C)C)CC2)CC1	55 µg/mL (≈ 125 µM)
O=C(C1CCN(c2nc(-c3ccc(Br)cc3)cs2)CC1)N1CCOCC1	7.27 µg/mL (≈ 16.7 µM)
CCCCOc1ccc(CNC(=O)c2cc3n(n2)CCCN(Cc2ccc(C)cc2)C3=O)cc1	< 1 µg/mL
NC(=O)C1CCN(c2nc(-c3ccccc3Cl)cs2)CC1	> 47 µg/mL
NC(=O)c1sc2nc3c(c(-c4cccs4)c2c1N)CCCC3	0.293 µg/mL (≈ 0.889 µM)
CNC(=O)Cn1cc(-c2ccc3c(c2)C(F)CC32NC(=O)N(CC(=O)N(Cc3ccc(F)cc3)[C@@H](C)C(F)(F)F)C2=O)cn1 (stereo partly specified)	22 µg/mL (≈ 35.5 µM)

Continued, values first:

solubility kinetic	SMILES
> 94 µg/mL	O=C1NCc2cc(-c3cc4c(ccn4Cc4ccncc4)c(N4CCOCC4)n3)ccc21
< 1 µg/mL	Cc1ccc(-c2cc(C(=O)Nc3ccncc3)c3ccccc3n2)cc1
21.2 µg/mL (≈ 48.5 µM)	O=C(Nc1nc(-c2ccccc2)cs1)c1ccncc1NS(=O)(=O)c1ccccc1
45.8 µg/mL (≈ 101 µM)	O=C(Nc1nc(-c2ccccc2)cs1)c1ccncc1NS(=O)(=O)c1ccc(F)cc1
1.21 µg/mL (≈ 4.39 µM)	CNc1oc(-c2ccccc2-c2ccccc2)nc1C#N
< 1 µg/mL	O=C(c1csnn1)N1CCC2(CCCN(C(c3ccccc3)c3ccccc3)C2)CC1
2.52 µg/mL (≈ 5.99 µM)	COc1ccc(CN2C(=O)[C@@H]3C[C@@H](CN3Cc3cccs3)Oc3ccccc32)cc1
< 1 µg/mL	O=C(Nc1nc(-c2ccccc2)cs1)c1ccncc1NS(=O)(=O)c1ccc2ccccc2c1
< 1 µg/mL	CCOC(=O)c1c(C)c(-c2ccccc2)n(CC(=O)NCc2ccccc2)c1C
< 1 µg/mL	Cc1ccc(CNc2ccccc2C(=O)Nc2nc(-c3ccccc3)cs2)cc1
2.2 µg/mL (≈ 4.65 µM)	Cc1ccc(S(=O)(=O)n2cc(C(=O)Nc3nc(-c4ccccc4)cs3)c3ccccc32)cc1
< 1 µg/mL	Cc1ccc(-c2nc3ccccc3o2)cc1NC(=O)COc1ccccc1
4.18 µg/mL (≈ 9.31 µM)	CCOc1ccc(CCNC(=O)c2cc3sccc3n2Cc2ccncc2)cc1OCC
< 1 µg/mL	CC1=C(C(=O)Nc2nccs2)C(c2ccccc2Br)N=C(Nc2nc3ccccc3o2)N1 (stereo unspecified)
< 1 µg/mL	COc1cccc(NS(=O)(=O)c2ccc(C)cc2)c1C(=O)Nc1nc(-c2ccccc2)cs1
> 73 µg/mL	CN[C@@H](C)C(=O)N[C@@H]1C(=O)N(Cc2c(C)ccc3ccccc23)c2ccc(C#N)cc2N(C(C)=O)[C@H]1C
< 1 µg/mL	Cc1ccccc1C(=O)n1ccc2cc(-c3nc(NC(=O)Cc4ccc5c(c4)OCO5)sc3C)ccc21
1.1 µg/mL (≈ 2.65 µM)	O=C(Nc1ccc2oc(-c3cccnc3)nc2c1)c1ccc(-c2cccc(Cl)c2)o1
20.5 µg/mL (≈ 53.2 µM)	O=S(=O)(Nc1nccs1)c1ccc(NCc2cccc3cc[nH]c23)cc1
< 1 µg/mL	Cc1ccc(S(=O)(=O)NCC(=O)Nc2nc(-c3ccccc3)cs2)cc1
< 1 µg/mL	COC(=O)C1=C(C)NC(C)=C(C(=O)OCCCN2CCC(c3ccccc3)(c3ccccc3)CC2)C1c1cccc([N+](=O)[O-])c1.Cl (stereo unspecified)

solubility kinetic	SMILES
< 1 µg/mL	Clc1cccc(-c2ccc(-c3nnc(CCCc4ccc5cccnc5n4)o3)cc2)c1
< 1 µg/mL	O=C(CCc1ccccc1)NC(c1cccs1)c1cc(Cl)c2cccnc2c1O (stereo unspecified)
18.1 µg/mL (≈ 44.4 µM)	CN(C)[C@@H]1CCN(c2cccc(Nc3nn4c(=O)c5ccccc5nc4s3)c2)C1
33.2 µg/mL (≈ 74.6 µM)	O=S(=O)(Nc1ccc(S(=O)(=O)Nc2nccs2)cc1)c1ccc2ccccc2c1
< 1 µg/mL	CCc1ccc(S(=O)(=O)Nc2cnccc2C(=O)Nc2nc(-c3ccccc3)cs2)cc1
< 1 µg/mL	O=S(=O)(Nc1cccc2cccnc12)c1ccc(NCc2ccc(Br)cc2O)cc1
< 1 µg/mL	Fc1ccc(Nc2nc(-c3ccccc3)nc3ccccc23)cc1F
< 1 µg/mL	CCOc1ccc(C(=O)Nc2ccc(S(=O)(=O)N3CCCCC3c3cccnc3)cc2)cc1 (stereo unspecified)
< 1 µg/mL	N#C/C(=C\c1ccc(-c2ccc(C(=O)O)cc2)o1)c1nc2ccccc2[nH]1
2.37 µg/mL (≈ 6.08 µM)	Cc1ccc(NC(=O)N(Cc2cn(C)c3ccccc23)C2CCCCC2)cc1C
> 43 µg/mL	Cc1csc2c1c(=O)n(O)c(=O)n2Cc1ccccc1
< 1 µg/mL	Fc1cnc(-c2ccccc2C(F)F)nc1NCc1ccc(-n2ccnn2)cc1
< 1 µg/mL	O=C(Nc1ccccc1C(=O)Nc1cccc(C(F)(F)F)c1)c1ccccc1
38.8 µg/mL (≈ 85.4 µM)	O=C(Nc1nc(-c2ccccc2)cs1)c1ccncc1NS(=O)(=O)c1ccccc1F
< 1 µg/mL	COc1cccc(CNc2ccc(S(=O)(=O)Nc3cccc4ccncc34)cc2)c1O
< 1 µg/mL	Cc1ccc(OCCn2c(CCNC(=O)c3ccc(Cl)cc3)nc3ccccc32)cc1
< 1 µg/mL	CCc1ccccc1C(=O)N1CCc2cc(-c3nc(NC(=O)Cc4ccc5c(c4)OCO5)sc3C)ccc21
< 1 µg/mL	CC(=O)Nc1cc(-c2nc(Nc3ccc(F)c(F)c3)c3ccccc3n2)ccn1
1.22 µg/mL (≈ 4.27 µM)	Oc1ccc(CNc2ccc(F)cc2F)c2cccnc12
8.45 µg/mL (≈ 20.2 µM)	CCOC(=O)CCNc1cc(N2CCc3ccccc3CC2)nc(-c2ccccn2)n1
< 1 µg/mL	O=C1Nc2ccc(-c3cccc(C(F)(F)F)c3)cc2C(=O)N2CCN(C(=O)COc3ccccc3)C[C@H]12
